Measurements: publication PMC6934184, “Selective DNA-PKcs inhibition extends the therapeutic index of localized radiotherapy and chemotherapy” (The Journal of Clinical Investigation, 2019)

Biological target: T1, SGK (SGK1) (Homo sapiens, UniProt O00141)
T1 construct: purchased Thermo Fisher Scientific (Life Technologies) SelectScreen
Assay: SelectScreen Z'LYTE
Assay type: biochemical
Method in brief: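 SelectScreen broad panel; activity (Z'LYTE, Adapta) plus binding formats. ATP: Km app for CSF1R Z'LYTE; 10 for CAMK1 Adapta. Readout = % per kinase.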

T1 sequence (O00141 whole entry): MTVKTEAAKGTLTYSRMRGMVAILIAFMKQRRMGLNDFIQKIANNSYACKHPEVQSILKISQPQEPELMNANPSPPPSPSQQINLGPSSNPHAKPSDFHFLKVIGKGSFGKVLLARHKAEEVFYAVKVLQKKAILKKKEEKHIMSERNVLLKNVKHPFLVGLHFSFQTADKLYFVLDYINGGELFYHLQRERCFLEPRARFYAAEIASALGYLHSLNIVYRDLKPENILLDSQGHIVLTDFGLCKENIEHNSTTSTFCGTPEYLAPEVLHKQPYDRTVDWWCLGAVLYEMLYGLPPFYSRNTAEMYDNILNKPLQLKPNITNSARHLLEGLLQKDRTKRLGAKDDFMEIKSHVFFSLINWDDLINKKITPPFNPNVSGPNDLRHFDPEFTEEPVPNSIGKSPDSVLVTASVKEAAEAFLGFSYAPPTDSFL

SMILES: CN(C(=O)CN1CCOCC1)c1ccc2sc3c(-c4cccc5c(=O)cc(N6CC7CCC(C6)O7)oc45)cccc3c2c1 [NU5455]
- inhibition at 1 µM: 8.5%
